# According to patent US20250295734A1, “ANTICOAGULANT PROTEINS AND THEIR USE FOR TREATING DISEASES ASSOCIATED WITH THE ACTIVATION OF NEUTROPHILS” (BIOXODES, priority 2018, published 2025):
# Tested on: human washed platelets
# Assay: In vitro platelet aggregation assay
# Assay type: cell-based
# Conditions: agent alone (TRAP 20 μM, ADP 20 μM or Ir-CPI 500 μg/100 μL); n=1
# Method: Blood from healthy human donors, who had not taken anti-platelet agents within the 15 days prior to collection, was collected in citrated tubes and centrifuged for 13 min at 200 g. The platelet-rich plasma was collected and centrifuged for 13 min at 900 g in Tyrode buffer (138 mM NaCl, 2.9 mM KCl, 12 mM NaHCO3, 5.5 mM glucose, 1.8 mM CaCl2 and 0.4 mM MgCl2, pH 7.4) containing 0.2% BSA, apyrase 0.02 U/mL and PGI2 500 nM. Washed platelets were resuspended in the Tyrode/BSA 0.2%/apyrase/PGI2 solution and centrifuged at 900 g for 13 min. Platelets were resuspended in a Tyrode/BSA 0.2% solution at a concentration of 3.10^8 platelets/mL. Platelets were kept at 37° C. for 30 min in a solution containing […]. Next, platelets were incubated at 37° C. under agitation for 5 to 10 minutes in an aggregometer APACT 4004 with ADP (adenosine diphosphate), TRAP (Thrombin Receptor-Activating Peptide) and/or Ir-CPI.
# The effect of Ir-CPI on platelet aggregation was assessed in vitro by using isolated human washed platelets (n=1).
compound,measurement,value
"Nc1ncnc2c1ncn2[C@@H]1O[C@H](COP(=O)(O)OP(=O)(O)O)[C@@H](O)[C@H]1O [ADP, adenosine diphosphate, reference compound]",Aggregation Latency,51.8 s
same,Aggregation Max,6.9%
same,Aggregation Slope,19.4 %/min
